According to ChEMBL document CHEMBL4359846, “Design, synthesis, and antifibrosis evaluation of 4-(benzo-[c][1,2,5]thiadiazol-5-yl)-3(5)-(6-methyl- pyridin-2-yl)pyrazole and 3(5)-(6-methylpyridin- 2-yl)-4-(thieno-[3,2,-c]pyridin-2-yl)pyrazole derivatives” (Eur J Med Chem, 2019):

Tests used:
[1] = molecular target: T1, Mitogen-activated protein kinase 14 (Homo sapiens, UniProt Q16539); assay: Inhibition of human recombinant untagged p38alpha expressed in Escherichia coli using ATF2 as substrate incubated for 60 mins in presence of [33P]-ATP by radiometric assay
TGF-beta receptor type-1 = molecular target: T2, TGF-beta receptor type-1 (Homo sapiens, UniProt P36897); assay: Inhibition of human recombinant GST-tagged ALK5 expressed in Sf9 insect cells using casein as substrate incubated for 60 mins in presence of [33P]-ATP by radiometric assay
T2 sequence (P36897 whole entry): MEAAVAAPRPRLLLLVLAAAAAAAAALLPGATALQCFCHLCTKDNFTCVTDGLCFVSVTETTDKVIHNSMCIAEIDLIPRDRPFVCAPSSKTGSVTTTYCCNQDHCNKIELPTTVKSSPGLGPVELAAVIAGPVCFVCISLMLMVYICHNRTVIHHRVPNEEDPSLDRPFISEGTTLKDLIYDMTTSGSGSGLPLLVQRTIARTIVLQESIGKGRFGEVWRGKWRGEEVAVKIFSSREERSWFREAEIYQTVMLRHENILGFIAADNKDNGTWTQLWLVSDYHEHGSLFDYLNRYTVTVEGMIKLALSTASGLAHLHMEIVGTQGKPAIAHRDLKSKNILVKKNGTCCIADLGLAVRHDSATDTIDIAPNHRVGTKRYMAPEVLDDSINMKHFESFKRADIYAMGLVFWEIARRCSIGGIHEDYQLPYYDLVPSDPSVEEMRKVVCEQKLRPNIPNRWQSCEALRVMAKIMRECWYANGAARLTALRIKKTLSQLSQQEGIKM

[2] = molecular target: T1, Mitogen-activated protein kinase 14; assay: Inhibition of human recombinant untagged p38alpha expressed in Escherichia coli at 10 uM using ATF2 as substrate incubated for 60 mins in presence of [33P]-ATP by radiometric assay relative to control
[3] = molecular target: T3, TGF-beta receptor type-1 (Homo sapiens) (UniProt P36897); assay: Inhibition of human recombinant GST-tagged ALK5 expressed in Sf9 insect cells at 10 uM using casein as substrate incubated for 60 mins in presence of [33P]-ATP by radiometric assay relative to control
T3 sequence (whole entry): T2 sequence (P36897 whole entry)

[4] = Cytotoxicity against human LX2 cells assessed as reduction in cell viability at 4 to 100 uM incubated for 3 hrs by MTT assay; type: cell-based

T1 sequence (Q16539 whole entry): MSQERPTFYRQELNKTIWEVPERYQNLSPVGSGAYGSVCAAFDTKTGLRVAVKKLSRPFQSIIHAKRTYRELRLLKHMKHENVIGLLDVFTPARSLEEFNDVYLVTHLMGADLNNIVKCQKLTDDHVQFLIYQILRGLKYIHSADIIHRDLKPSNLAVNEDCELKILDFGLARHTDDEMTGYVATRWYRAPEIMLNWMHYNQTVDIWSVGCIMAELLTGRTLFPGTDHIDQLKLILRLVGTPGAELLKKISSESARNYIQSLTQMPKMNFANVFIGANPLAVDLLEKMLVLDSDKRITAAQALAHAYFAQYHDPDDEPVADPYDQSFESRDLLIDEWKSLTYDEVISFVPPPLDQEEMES

IC50 [1] [nM] | IC50 (TGF-beta receptor type-1) [nM] | inhibition [2] [%] | inhibition [3] [%] | SMILES | Activity [4]
> 10000 | 87 | 0 to 66 | 98 to 99 | Cc1cccc(-c2nn(CC(=O)Nc3cccc(F)c3)cc2-c2ccc3nsnc3c2)n1 | 
> 10000 | 30 | 0 to 66 | 98 to 99 | Cc1cccc(-c2nn(CC(=O)Nc3ccccc3)cc2-c2ccc3nsnc3c2)n1 | 
5800 | 42 | 0 to 66 |  | Cc1cccc(-c2nn(CC(=S)Nc3ccccc3)cc2-c2ccc3nsnc3c2)n1 | 
3800 | 55 | 0 to 66 |  | Cc1cccc(-c2nn(CC(=S)Nc3ccccc3F)cc2-c2ccc3nsnc3c2)n1 | 
> 10000 | 312 | 0 to 66 | 98 to 100 | Cc1cccc(-c2nn(CC(=O)Nc3ccccc3F)cc2-c2cc3cnccc3s2)n1 | 
7040 | 30 | 0 to 66 |  | Cc1cccc(-c2nn(CC(=S)Nc3cccc(F)c3)cc2-c2ccc3nsnc3c2)n1 | Toxic
 |  | 0 to 66 | 52 to 98 | Cc1cccc(-c2c(-c3ccc4nsnc4c3)cnn2CC(=O)Nc2ccccc2F)n1 | 
> 10000 | 168 | 0 to 66 | 98 to 99 | Cc1cccc(-c2nn(CC(=O)Nc3ccccc3F)cc2-c2ccc3nsnc3c2)n1 | 
> 10000 | 165 | 0 to 66 | 98 to 99 | Cc1cccc(-c2nn(CC(=O)Nc3cccc(C#N)c3)cc2-c2ccc3nsnc3c2)n1 | 

Further lines, the compound ahead of its results:

SMILES | IC50 [1] [nM] | IC50 (TGF-beta receptor type-1) [nM] | inhibition [2] [%] | inhibition [3] [%] | Activity [4]
Cc1cccc(-c2nn(CC(=S)Nc3cccc(F)c3)cc2-c2cc3cnccc3s2)n1 | > 10000 | 125 | 0 to 66 |  | 
Cc1cccc(-c2c(-c3cc4cnccc4s3)cnn2CC(=O)Nc2ccccc2F)n1 |  |  | 0 to 66 | 46 to 91 | 
Cc1cccc(-c2c(-c3ccc4nsnc4c3)cnn2CC(=O)Nc2cccc(C#N)c2)n1 |  |  | 0 to 66 | 52 to 98 | 
Cc1cccc(-c2nn(CC(=O)Nc3cccc(C#N)c3)cc2-c2cc3cnccc3s2)n1 | > 10000 | 230 | 0 to 66 | 98 to 100 | 
Cc1cccc(-c2c(-c3cc4cnccc4s3)cnn2CC(=O)Nc2ccccc2)n1 |  |  | 0 to 66 | 46 to 91 | 
Cc1cccc(-c2c(-c3cc4cnccc4s3)cnn2CC(=O)Nc2cccc(C#N)c2)n1 |  |  | 0 to 66 | 46 to 91 | 
Cc1cccc(-c2nn(CC(=S)Nc3cccc(C#N)c3)cc2-c2ccc3nsnc3c2)n1 | > 10000 | 116 | 0 to 66 |  | 
Cc1cccc(-c2c(-c3cc4cnccc4s3)cnn2CC(=O)Nc2cccc(F)c2)n1 |  |  | 0 to 66 | 46 to 91 | 
Cc1cccc(-c2nn(CC(=O)Nc3ccccc3)cc2-c2cc3cnccc3s2)n1 | 8120 | 39 | 0 to 66 |  | Non-Toxic
Cc1cccc(-c2c(-c3ccc4nsnc4c3)cnn2CC(=O)Nc2ccccc2)n1 |  |  | 0 to 66 | 52 to 98 | 
Cc1cccc(-c2c(-c3ccc4nsnc4c3)cnn2CC(=O)Nc2cccc(F)c2)n1 |  |  | 0 to 66 | 52 to 98 | 
Cc1cccc(-c2nn(CC(=O)Nc3cccc(F)c3)cc2-c2cc3cnccc3s2)n1 | > 10000 | 119 | 0 to 66 | 98 to 100 | 
Cc1cccc(-c2nn(CC(=S)Nc3cccc(C#N)c3)cc2-c2cc3cnccc3s2)n1 | 9460 | 78 | 0 to 66 |  | 
